We go through seven molecules from US20240026461A1, “BCL10 MUTATIONS AS BIOMARKERS FOR TARGETED THERAPY IN B CELL LYMPHOMAS” (priority 2022, published 2024).

One data set concerns OCI-LY10^E140X. In words: Growth inhibition assay (CellTiter Glo), OCI-Ly10 cells expressing BCL10 E140X. It counts as cell-based. Particulars: Homo sapiens, 96 h. How it is done: (§1) DLBCL cell lines were cultured in exponential condition and the cell growth was determined by CellTiter Glo (Promega). 3000-5000 cells were seeded and cultured in each well of 384 well plate for 96 h and treated with compounds every 48 h. Luminescence was read at the endpoint with the Synergy NEO microplate reader (BioTek). The value of compound treated cells was normalized to their vehicle treated controls and then used to calculate IC50 in GraphPad Prism (RRID:SCR_002798).
(§2) Given the distinct functional profiles, CARD11 dependencies, and MALT1 activation effects of the BCL10 CARD and truncation mutants, the inventors designed experiments to evaluate whether, and to what extent, these mutant BCL10 proteins might confer BTK inhibitor resistance. Isogenic ABC-DLBCL cells expressing BCL10WT, BCL10^R58Q and BCL10^E140X proteins were treated with escalating doses of three chemically distinct covalent BTK inhibitors: ibrutinib, acalabrutinib, or zanubrutinib. The cellular proliferation rates of the treated cells were measured using an ATP fluorescence assay after 96 hours of drug exposure.
(§3) Isogenic BCL10^WT, BCL10^R58Q and BCL10^E140X ABC-DLBCLs were exposed to increasing concentrations of each of these compounds for 96 hours.
A general note: Cellular ATP, detected with luciferase, serves as a proxy for viable cell number.

In the next data set the test system is OCI-LY10^WT. The data set is described as follows: Growth inhibition assay (CellTiter Glo), OCI-Ly10 cells expressing BCL10 WT. The format is cell-based. To be noted: Homo sapiens, 96 h. How it is done:
as §1, §2, §3

The next data set concerns HBL1^WT. In words: Growth inhibition assay (CellTiter Glo), HBL1 cells expressing BCL10 WT. To be noted: Homo sapiens, 96 h. The format is cell-based. How it is done: as §1, §2, §3
The test system of the next data set is HBL1^R58Q. The data set is described as follows: Growth inhibition assay (CellTiter Glo), HBL1 cells expressing BCL10 R58Q. It counts as cell-based. To be noted: Homo sapiens, 96 h. How it is done:
as §1, §2, §3

The next data set relates to OCI-LY10^R58Q. The data set is described as follows: Growth inhibition assay (CellTiter Glo), OCI-Ly10 cells expressing BCL10 R58Q. The format is cell-based. Particulars: Homo sapiens, 96 h. How it is done:
as §1, §2, §3

For the next data set, the system named is HBL1^E140X. The data set is described as follows: Growth inhibition assay (CellTiter Glo), HBL1 cells expressing BCL10 E140X. It counts as cell-based. To be noted: Homo sapiens, 96 h. How it is done:
as §1, §2, §3

In data set [1] the test system is isogenic ABC-DLBCL cells expressing BCL10^WT, BCL10^R58Q and BCL10^E140X. In words: Growth inhibition of isogenic ABC-DLBCL cells, response described in words. It counts as cell-based, human. Particulars: 96 hours. The protocol: as §1, §2, §3
Data set [2] has as its target T1, BCL10^R58Q (recombinant, full-length, after 3C cleavage of the MBP tag).
T1 chain: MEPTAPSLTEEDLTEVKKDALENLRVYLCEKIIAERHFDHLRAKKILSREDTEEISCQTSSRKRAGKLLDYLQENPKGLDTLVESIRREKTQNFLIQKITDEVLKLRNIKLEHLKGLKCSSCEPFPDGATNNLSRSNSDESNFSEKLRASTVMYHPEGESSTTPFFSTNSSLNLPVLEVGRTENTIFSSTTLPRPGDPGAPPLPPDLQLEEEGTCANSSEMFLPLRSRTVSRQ

The target in data set [3] is T2, BCL10^E140X (recombinant, after 3C cleavage of the MBP tag).
T2 chain: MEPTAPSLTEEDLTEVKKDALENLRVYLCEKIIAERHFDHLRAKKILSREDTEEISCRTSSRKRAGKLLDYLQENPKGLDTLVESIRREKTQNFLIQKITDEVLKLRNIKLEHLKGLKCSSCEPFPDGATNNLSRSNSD

The target of data set [4] is T3, BCL10^WT (recombinant, full-length, after 3C cleavage of the MBP tag).
T3 chain: T1 chain with Q58R

Data set [5] concerns the molecule itself. In words: confocal fluorescence microscopy of Alexa488-BCL10 filaments 4 h after 3C cleavage of MBP; self-association. The protocol: To determine the mechanism through which BCL10 mutants might confer a biochemical gain of function, full-length BCL10^WT, BCL10^E140X and BCL10^R58Q fused to a 3C protease-cleavable maltose binding protein (MBP) at the N-terminus to keep the proteins in a monomeric state were expressed and purified (FIG. 9A). The purified proteins were labeled with Alexa488 through cysteine residues in the unstructured C-terminal region. Spontaneous filament formation was then assessed by confocal fluorescence microscopy as a function of BCL10 concentration 4 h after mixing with the 3C protease to remove the MBP tag. […] The kinetics of filament formation by these proteins was imaged at […] concentration, which is above the concentration of polymerization for WT and these mutant BCL10 proteins using time lapse confocal fluorescence microscopy.

Data set [6] deals with T4, Full length His-tagged MALT1 (human, UniProt Q9UDY8 2-824).
T4 construct: mature; also called purified, full length MALT1; FL MALT1; not shown: His tag
T4 sequence (looked up): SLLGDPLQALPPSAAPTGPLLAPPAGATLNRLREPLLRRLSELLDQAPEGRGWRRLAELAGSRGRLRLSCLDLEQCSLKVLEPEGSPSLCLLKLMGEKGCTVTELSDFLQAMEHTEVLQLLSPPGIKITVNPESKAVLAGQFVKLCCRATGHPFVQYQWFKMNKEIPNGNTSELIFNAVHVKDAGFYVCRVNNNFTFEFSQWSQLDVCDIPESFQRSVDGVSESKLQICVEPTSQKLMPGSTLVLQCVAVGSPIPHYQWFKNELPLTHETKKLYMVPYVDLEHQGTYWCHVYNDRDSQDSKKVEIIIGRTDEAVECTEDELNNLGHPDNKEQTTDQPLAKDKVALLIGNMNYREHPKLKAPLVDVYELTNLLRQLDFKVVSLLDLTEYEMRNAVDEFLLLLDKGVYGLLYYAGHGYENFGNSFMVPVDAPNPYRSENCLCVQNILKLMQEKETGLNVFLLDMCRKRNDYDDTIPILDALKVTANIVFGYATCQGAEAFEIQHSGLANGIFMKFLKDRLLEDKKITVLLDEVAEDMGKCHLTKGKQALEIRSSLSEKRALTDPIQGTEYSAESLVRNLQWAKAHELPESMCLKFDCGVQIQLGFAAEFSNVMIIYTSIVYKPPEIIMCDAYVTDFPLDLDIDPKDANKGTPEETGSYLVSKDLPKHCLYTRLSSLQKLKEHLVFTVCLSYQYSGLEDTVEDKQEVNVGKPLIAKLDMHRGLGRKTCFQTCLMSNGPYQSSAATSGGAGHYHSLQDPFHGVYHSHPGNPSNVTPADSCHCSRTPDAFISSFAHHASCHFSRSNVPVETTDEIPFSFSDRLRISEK
The data set is described as follows: negative staining EM of BCL10 filaments incubated with MALT1. How it is done: This new MALT1 binding domain is deleted from BCL10^E140X. The inventors next explored whether there was any impairment in MALT1 recruitment to BCL10 filaments, by generating BCL10^WT and BCL10^E140X filaments in vitro and incubating them with purified, full length MALT1 followed by negative staining electron microscopy (EM). […] However, this experiment may not provide sufficient resolution to show whether MALT1 distribution on the different BCL10 polymers was altered. Therefore, cryo-EM data were then collected on a Titan Krios microscope operating ats 300 keV and equipped with a Falcon II direct electron detector. The cryo-EM structure of BCL10^E140X filaments in complex with MALT1 was thus determined at 4.3 Å resolution.
Given that this new MALT1 binding domain is deleted from BCL10^E140X we next explored whether there was any impairment in MALT1 recruitment to BCL10 filaments, by generating BCL10^WT and BCL10^E140X filaments in vitro and incubating them with purified, full length MALT1 followed by negative staining EM. […] The structure of the BCL10^E140X filament with MALT1 was highly similar to that of the BCL10^WT filament with MALT1 at 4.9 Å resolution, in which the DDS of MALT1 bind the CARD of BCL10 and decorate the outside of the core CARD filament (FIG. 11G-I).

The mark [7] stands for this setting: read-out: IC50, growth inhibition, BTK inhibitors.
Setting [8] is: read-out: IC50, growth inhibition, MALT1 inhibitors.

Substitutions are numbered along the chain they refer to. Names and notes keep the numbering of the source. Read-outs that look alike come from different tables or passages of the source.

For `CC#CC(=O)N1CCC[C@H]1c1nc(-c2ccc(C(=O)Nc3ccccn3)cc2)c2c(N)nccn12` [Acalabrutinib], the IC50 in the data set on OCI-LY10^E140X (setting [7]) was 5.39 ± 0.77 nM; in the data set on OCI-LY10^WT (setting [7]), 6.38 ± 0.35 nM; with HBL1^WT (setting [7]), 4.75 ± 2.11 nM; with HBL1^R58Q (setting [7]), 5.54 ± 0.32 nM; with OCI-LY10^R58Q (setting [7]), 7.69 ± 0.59 nM; in the data set on HBL1^E140X (setting [7]), 28.2 ± 21.2 nM.

Consider `CO[C@H](c1c(NC(=O)Nc2cnc(-n3nccn3)c(Cl)c2)cnc2cc(Cl)nn12)[C@@H](C)OC` [MLT-748], for which the half-maximal inhibitory concentration (IC50) stood at 90 ± 60 nM in the data set on OCI-LY10^E140X (setting [8]); 70 ± 6 nM in the data set with OCI-LY10^WT (setting [8]); 1940 ± 200 nM in the data set on HBL1^WT (setting [8]); 3320 ± 1460 nM in the data set with HBL1^R58Q (setting [8]); 240 ± 50 nM with OCI-LY10^R58Q (setting [8]); 540 ± 500 nM with HBL1^E140X (setting [8]). The “growth response in words” value in [1] (BCL10^R58Q ABC-DLBCL cells) and in data set [1] (BCL10^WT ABC-DLBCL cells) was “generally sensitive” throughout.

Take `C=CC(=O)N1CCC([C@@H]2CCNc3c(C(N)=O)c(-c4ccc(Oc5ccccc5)cc4)nn32)CC1` [Zanubrutinib]: the half-maximal inhibitory concentration (IC50) in the data set on OCI-LY10^E140X (setting [7]) came to 2.86 ± 0.13 nM; in the data set with OCI-LY10^WT (setting [7]), 1.74 ± 0.08 nM; in the data set on HBL1^WT (setting [7]), 1.46 ± 0.32 nM; with HBL1^R58Q (setting [7]) it was 1.58 ± 0.06 nM; with OCI-LY10^R58Q (setting [7]), 1.81 ± 0.33 nM; in the data set on HBL1^E140X (setting [7]), 9.31 ± 6.22 nM.

B1: Full length His-tagged MALT1 (protein)
chain: T4 sequence (looked up)
Take B1: the “BCL10 polymerization kinetics by fluorescence quenching (3 µM Alexa488-BCL10, MALT1 at 0, 1.5, 3, 6 and 12 µM)” value in data set [2] is “increasing doses of MALT1 suppressed BCL10^WT and BCL10^R58Q filament formation in a dose dependent manner”; in data set [3] it was “there was little suppression of BCL10^E140X polymerization by MALT1 at any dose”; in [4], “increasing doses of MALT1 suppressed BCL10^WT and BCL10^R58Q filament formation in a dose dependent manner”.

B2: BCL10^WT (recombinant, full-length, after 3C cleavage of the MBP tag) (other)
chain: T1 chain with Q58R
modifications: Alexa488 (C5-maleimide) on cysteine residues in the confocal and quenching assays
notes: Made as His-MBP-3C site-BCL10 (vector pDB-His-MBP); MBP removed by 3C protease to start filament formation; Forms helical filaments (number of copies not fixed); also called BCL10 FL; BCL10 WT filaments
In the case of B2, the concentration of polymerization in data set [5] was approximately 500 nM. For the same molecule, the binding result in data set [6] is “binds”.

B3: BCL10^R58Q (recombinant, full-length, after 3C cleavage of the MBP tag) (other)
chain: T1 chain
modifications: Alexa488 (C5-maleimide) on cysteine residues in the confocal and quenching assays
notes: Made as His-MBP-3C site-BCL10; MBP removed by 3C protease; Forms filaments; also called R58Q filaments
Turning to B3, the concentration of polymerization in [5] was approximately 250 nM.

B4: BCL10^E140X (recombinant, after 3C cleavage of the MBP tag) (other)
chain: T2 chain
modifications: Alexa488 (C5-maleimide) on cysteine residues in the confocal and quenching assays
notes: Range 1-139 from the name E140X; Made as His-MBP-3C site-BCL10; MBP removed by 3C protease; also called E140X filaments; BCL10 (1-140)
Regarding B4, the concentration of polymerization in [5] was not above 100 nM. The binding result in data set [6] is on record as “binds”.

As usually defined, the IC50 is the midpoint of a concentration-inhibition curve.
